Experimental data published in patent publication US20190100549A1, “FLAVONOIDE-TYPE COMPOUNDS BEARING AN O-RHAMNOSYL RESIDUE” (Universitaet Hamburg, priority 2016, published 2019).
“And” between values parts separate entries of the source, which are not always exact repeats. Equal values may be shown once. Read-outs that look alike come from different tables or passages of the source.

Tests used:
[1] = test system: lipid peroxides (C11-fluor) in NHEK cells; assay: Protection against UV-induced lipid peroxide in NHEK (C11-fluor probe, flow cytometry); type: cell-based, human
Protocol: (§1) Pre-incubated NHEK were incubated with the test compound for 24 h. Then the specific fluorescence probe for the measurement of hydrogen peroxide (DHR) or lipid peroxides (C11-fluor) was added and incubated for 45 min. Irradiation occurred with in H2O2 determination UVB at 180 mJ/cm^2 (+UVA at 2839 mJ/cm^2) or UVB at 240 mJ/cm^2 (+UVA at 3538 mJ/cm^2) in lipid peroxide, respectively, using a SOL500 Sun Simulator lamp. After irradiation the cells were post-incubated for 30 min before flow-cytometry analysis.

VEGF = VEGF release in NHDF (ELISA); type: cell-based, human; conditions: 1 μg/ml, 72 hours
Protocol: (§2) Tests were performed with normal human dermal fibroblast cultures at the 8th passage. Cells were grown in DMEM supplemented with glutamine at 2 mM, penicillin at 50 U/mL and streptomycin (50 μg/mL) and 10% of fetal calf serum (FCS) at 37° C. in a 5% CO2 atmosphere.
(§3) Fibroblasts were cultured for 24 hours before the cells were incubated with the test compounds for further 72 hours. After the incubation the culture supernatants were collected in order to measure the released quantities of procollagen I, VEGF, and fibronectin by means of ELISA. Reference test compounds were vitamin C (procollagen I), PMA (VEGF), and TGF-β (fibronectin).

PGE2 = PGE2 release in stimulated NHEK (ELISA); type: cell-based, human; conditions: Homo sapiens, NHEK, PMA 1 μg/ml; for inhibition at 1 µM: 10^−6 M
Protocol: (§4) NHEK were pre-incubated for 24 h with the test compounds. The medium was replaced with the NHEK culture medium containing the inflammatory inducers (PMA or Poly I:C) and incubated for another 24 hours. Positive and negative controls ran in parallel. At the endpoint the culture supernatants were quantified of secreted IL-8, PGE2 and TNF-α by means of ELISA.

fibronectin = assay: Fibronectin synthesis in NHDF (ELISA); type: cell-based, human; conditions: 10 ng/ml, 72 hours
Protocol: as §2, §3

[2] = test system: hydrogen peroxide (DHR) in NHEK cells; assay: Protection against UV-induced H2O2 stress in NHEK (DHR probe, flow cytometry); type: cell-based, human; conditions: 180 mJ/cm^2 UVB (2839 mJ/cm^2 UVA); for H2O2 (AU) (DHR GMFI): single values
Protocol: as §1

[3] = test system: normal human epidermal keratinocytes (NHEK); assay: Cytotoxicity on NHEK monolayer cultures (MTT reduction assay and morphological observation); type: cell-based; conditions: for Viability (%): single values, listed as Nar-5-Rha
Protocol: To determine the cytotoxicity of flavonoid-5-O-α-L-rhamnosides tests were performed versus their aglycon derivatives in cell monolayer cultures. For this purpose concentrations ranging from 1 μM to 250 μM were chosen. The viability of normal human epidermal keratinocytes (NHEK) was twice evaluated by a MTT reduction assay and morphological observation with a microscope. NHEK were grown at 37° C. and 5% CO2 aeration in Keratinocyte-SFM medium supplemented with epidermal growth factor (EGF) at 0.25 ng/mL, pituitary extract (PE) at 25 μg/mL and gentamycin (25 μg/mL) for 24 h and were used at the 3rd passage. For cytotoxicity testing, pre-incubated NHEK were given fresh culture medium containing a specific concentration of test compound and incubated for 24 h. After a medium change at same test concentration cells were incubated a further 24 h until viability was determined. Test results are given in Table B2 and illustrated in FIG. 10.

IL-8 = IL-8 release in stimulated NHEK (ELISA); type: cell-based, human; conditions: Homo sapiens, NHEK
Protocol: as §4

[4] = Water solubility of naringenin-5-rhamnoside (0.2 μm filtered solutions, HPLC); type: physicochemical; conditions: read-out: maximum water solubility
Protocol: FIG. 1: Determination of solubility of naringenin-5-O-α-L-rhamnoside (NR1) in water. Defined concentrations of NR1 were 0.22 μm-filtered before injection to HPLC. Soluble concentrations were calculated from peak areas by determined regression curves.
FIG. 1 illustrates the amounts of Naringenin-5-rhamnoside recaptured from a RP18 HPLC-column after loading of a 0.2 μm filtered solution containing defined amounts up to 25 mM of the same. Amounts were calculated from a regression curve.

TNF-α = TNF-α release in stimulated NHEK (ELISA); type: cell-based, human; conditions: Homo sapiens, NHEK, poly(I:C), read-out: TNFα Inhibition %
Protocol: as §4

procollagen I = assay: Procollagen I synthesis in NHDF (ELISA); type: cell-based, human; conditions: 20 μg/ml, 72 hours
Protocol: as §2, §3

[5] = 50 μM, 240 mJ/cm^2 UVB (3538 mJ/cm^2 UVA)
[6] = 50 μM, 240 mJ/cm^2 UVB (3538 mJ/cm^2 UVA), single values

Cc1cc(C(C)(C)C)c(O)c(C(C)(C)C)c1 [BHT]
C11-fluor(AU) Mean (1/GMFI) [1, 5]: 3.3E−04 AU
lipid peroxide % Irradiated control [1, 5]: 72%
lipid peroxide Protection % [1, 5]: 37%
C11-fluor(AU) 1/GMFI [1, 6]: 3.2E−04 AU and 3.3E−04 AU and 3.5E−04 AU
C11-fluor(AU) GMFI [1, 6]: 3139 AU and 3047 AU and 2877 AU

CCCCCCCCCCCCCC(=O)O[C@@H]1[C@@H](C)[C@@]2(O)[C@@H](C=C(CO)C[C@]3(O)C(=O)C(C)=C[C@@H]23)[C@@H]2C(C)(C)[C@]12OC(C)=O [PMA, reference compound]
Mean VEGF (VEGF): 148 pg/mL
VEGF % Control (VEGF): 205%
VEGF % Stimulation (VEGF): 105%
VEGF (VEGF; single values): 150 pg/mL and 143 pg/mL

C[C@@H]1C[C@H]2[C@@H]3CCC4=CC(=O)C=C[C@]4(C)[C@@]3(F)[C@@H](O)C[C@]2(C)[C@@]1(O)C(=O)CO [Dexamethasone, reference compound]
inhibition at 1 µM (PGE2): 9%

TGF-β
Fibronectin % Control (fibronectin): 181%
Fibronectin % Stimulation (fibronectin): 81%
Fibronectin (fibronectin; single values): 10870 ng/mL and 11178 ng/mL and 11128 ng/mL

COc1ccc(O)c(C(C)(C)C)c1 [BHA]
H2O2 % irradiated control ([2]; 100 μM): 42%
H2O2 (AU) Mean ([2]; 100 μM): 776 AU
H2O2 Protection % ([2]; 100 μM): 70%
H2O2 (AU) (DHR GMFI) ([2]; 100 μM): 740 AU and 834 AU and 754 AU

C[C@@H]1O[C@@H](Oc2cc(O)cc3c2C(=O)CC(c2ccc(O)cc2)O3)[C@H](O)[C@H](O)[C@H]1O (mixture of isomers) [NR1, Naringenin-5-O-α-L-rhamnoside]
anti-oxidative function on lipid peroxides (in words) [1]: anti-oxidative function
inhibition at 100 µM (PGE2; 100 μM): 21%
Viability (%) Mean ([3]; 1 μM): 101%
Viability (%) ([3]; 1 μM): 91% and 111%
Viability (%) Mean ([3]; 2.5 μM): 93%
Viability (%) ([3]; 2.5 μM): 92% and 93%
Viability (%) Mean ([3]; 5 μM): 86%
Viability (%) ([3]; 5 μM): 85% and 88%
Viability (%) Mean ([3]; 10 μM): 97%
Viability (%) ([3]; 10 μM): 94% and 100%
Viability (%) Mean ([3]; 25 μM): 95%
Viability (%) ([3]; 25 μM): 92% and 98%
Viability (%) Mean ([3]; 50 μM): 84%
Viability (%) ([3]; 50 μM): 78% and 91%
Viability (%) Mean ([3]; 100 μM): 86%
Viability (%) ([3]; 100 μM): 82% and 90%
Viability (%) Mean ([3]; 250 μM): 83%
Viability (%) ([3]; 250 μM): 79% and 87%
inhibition at 100 µM (IL-8; PMA): 12%
inhibition at 100 µM (IL-8; poly(I:C)): 14%
solubility ([4]; equivalent of 10 mmol/L): ~4200 µg/mL
solubility [4]: ~10 mM
inhibition at 100 µM (TNF-α): 8%

O=C1O[C@H]([C@@H](O)CO)C(O)=C1O [Vitamin C]
Procollagen I % Control (procollagen I): 316%
Procollagen I % Stimulation (procollagen I): 216%
Procollagen I Mean (procollagen I): 5272 ng/mL
Procollagen I (procollagen I; single values): 4739 ng/mL and 5854 ng/mL and 5225 ng/mL

COc1ccc2c(c1)c(CC(=O)O)c(C)n2C(=O)c1ccc(Cl)cc1 [Indomethacin, reference compound]
inhibition at 1 µM (PGE2): 106%

Cc1c(C)c2c(c(C)c1O)CC[C@@](C)(CCC[C@H](C)CCC[C@H](C)CCCC(C)C)O2 [Vit. E]
H2O2 % irradiated control ([2]; 50 μM): 35%
H2O2 (AU) Mean ([2]; 50 μM): 655 AU
H2O2 Protection % ([2]; 50 μM): 78%
H2O2 (AU) (DHR GMFI) ([2]; 50 μM): 628 AU and 650 AU and 687 AU
